Here are results for eight compounds from ChEMBL document CHEMBL1139215, “Discovery of aminofurazan-azabenzimidazoles as inhibitors of Rho-kinase with high kinase selectivity and antihypertensive activity” (J Med Chem, 2007).

For data set [1], the species on record is Homo sapiens. Briefly: Selectivity for ROCK1 over RSK1.
Data set [2] is filed under the species Homo sapiens. Put plainly: Selectivity for ROCK1 over p70S6K.
Data set [3] has as its target Rho-associated protein kinase 1 (Homo sapiens, UniProt Q13464). Put plainly: Inhibition of human ROCK1 in Sf9 cells. The format is cell-based.
For data set [4], the species on record is Homo sapiens. Put plainly: Selectivity for ROCK1 over CDK2.
Data set [5] is filed under the species Homo sapiens. Briefly: Selectivity for ROCK1 over GSK3-beta.
The species named for data set [6] is Homo sapiens. Briefly: Selectivity for ROCK1 over MSK1.
A short description of data set [7]: Cmax in Sprague-Dawley rat at 2.2 mg/kg, po. The format is ADME, organism-based. Details: dose 2.2 mg/kg, route oral. The settings on record: in vivo.
Data set [8] can be described thus: Half life in Sprague-Dawley rat at 1 mg/kg, iv. The following applies: in vivo. The format is ADME, organism-based. On the set-up: dose 1 mg/kg, route intravenous.
Data set [9] is described as follows: Oral bioavailability in Sprague-Dawley rat at 2.2 mg/kg, po. The format is ADME, organism-based. The following applies: in vivo.
The nature of data set [10]: Cmax in Sprague-Dawley rat at 1 mg/kg, iv. On the set-up: dose 1 mg/kg, route intravenous. The following applies: in vivo. The format is ADME, organism-based.
Another data set relates to Aorta. Briefly: Relaxation of phenylephrine contracted Sprague-Dawley rat aortic rings. The format is functional, tissue-based.
Data set [11] can be described thus: Clearance in Sprague-Dawley rat at 1 mg/kg, iv. Details: dose 1 mg/kg, route intravenous. The following applies: in vivo. The format is ADME, organism-based.
The nature of data set [12]: Volume of distribution in Sprague-Dawley rat at 1 mg/kg, iv. The format is ADME, organism-based. Details: dose 1 mg/kg, route intravenous. The following applies: in vivo, read-out: Vdss.
A short description of data set [13]: Cmax in Sprague-Dawley rat at 2.1 mg/kg, po. On the set-up: dose 2.1 mg/kg, route oral. The settings on record: in vivo. The format is ADME, organism-based.
A short description of data set [14]: Oral bioavailability in Sprague-Dawley rat at 2.1 mg/kg, po. The settings on record: in vivo. The format is ADME, organism-based.
The nature of data set [15]: Half life in Sprague-Dawley rat at 2.1 mg/kg, iv. On the set-up: dose 2.1 mg/kg, route intravenous. The settings on record: in vivo. The format is ADME, organism-based.
The nature of data set [16]: Clearance in Sprague-Dawley rat at 2.1 mg/kg, iv. The format is ADME, organism-based. On the set-up: dose 2.1 mg/kg, route intravenous. The settings on record: in vivo.
Data set [17] is described as follows: Cmax in Sprague-Dawley rat at 2.1 mg/kg, iv. The format is ADME, organism-based. Details: dose 2.1 mg/kg, route intravenous. The settings on record: in vivo.
A short description of data set [18]: Volume of distribution in Sprague-Dawley rat at 2.1 mg/kg, iv. The settings on record: in vivo, read-out: Vdss. Details: dose 2.1 mg/kg, route intravenous. The format is ADME, organism-based.
A short description of data set [19]: Half life in Sprague-Dawley rat at 1.1 mg/kg, iv. The format is ADME, organism-based. On the set-up: dose 1.1 mg/kg, route intravenous. The settings on record: in vivo.
A short description of data set [20]: Cmax in Sprague-Dawley rat at 1.1 mg/kg, iv. The format is ADME, organism-based. Details: dose 1.1 mg/kg, route intravenous. The following applies: in vivo.
Data set [21] can be described thus: Volume of distribution in Sprague-Dawley rat at 1.1 mg/kg, iv. The format is ADME, organism-based. On the set-up: dose 1.1 mg/kg, route intravenous. The settings on record: in vivo, read-out: Vdss.
Data set [22] can be described thus: Clearance in Sprague-Dawley rat at 1.1 mg/kg, iv. The format is ADME, organism-based. Details: dose 1.1 mg/kg, route intravenous. The following applies: in vivo.
Data set [23] is described as follows: Oral bioavailability in Sprague-Dawley rat at 3.7 mg/kg, po. The following applies: in vivo. The format is ADME, organism-based.
Data set [24] is described as follows: Half life in Sprague-Dawley rat at 1.2 mg/kg, iv. The format is ADME, organism-based. Details: dose 1.2 mg/kg, route intravenous. The settings on record: in vivo.
A short description of data set [25]: Volume of distribution in Sprague-Dawley rat at 1.2 mg/kg, iv. The format is ADME, organism-based. Details: dose 1.2 mg/kg, route intravenous. The settings on record: in vivo, read-out: Vdss.
The nature of data set [26]: Cmax in Sprague-Dawley rat at 1.2 mg/kg, iv. The format is ADME, organism-based. On the set-up: dose 1.2 mg/kg, route intravenous. The settings on record: in vivo.
Data set [27] in a line: Cmax in Sprague-Dawley rat at 3.7 mg/kg, po. The settings on record: in vivo. The format is ADME, organism-based. Details: dose 3.7 mg/kg, route oral.
The nature of data set [28]: Clearance in Sprague-Dawley rat at 1.2 mg/kg, iv. The format is ADME, organism-based. Details: dose 1.2 mg/kg, route intravenous. The following applies: in vivo.
The nature of data set [29]: Cmax in Sprague-Dawley rat at 0.85 mg/kg, iv. The format is ADME, organism-based. On the set-up: dose 0.85 mg/kg, route intravenous. The settings on record: in vivo.
Data set [30] is described as follows: Half life in Sprague-Dawley rat at 0.85 mg/kg, iv. The format is ADME, organism-based. Details: dose 0.85 mg/kg, route intravenous. The following applies: in vivo.
Data set [31] in a line: Clearance in Sprague-Dawley rat at 0.85 mg/kg, iv. The format is ADME, organism-based. Details: dose 0.85 mg/kg, route intravenous. The settings on record: in vivo.
Data set [32] in a line: Oral bioavailability in Sprague-Dawley rat at 2 mg/kg, po. The following applies: in vivo. The format is ADME, organism-based.
Data set [33] is described as follows: Cmax in Sprague-Dawley rat at 2 mg/kg, po. The following applies: in vivo. The format is ADME, organism-based. On the set-up: dose 2 mg/kg, route oral.
Data set [34] is described as follows: Volume of distribution in Sprague-Dawley rat at 0.85 mg/kg. The format is ADME, organism-based. On the set-up: dose 0.85 mg/kg. The settings on record: in vivo, read-out: Vdss.

Molecules are shown by their SMILES.

Rho-associated protein kinase 1, sequence (Q13464 whole entry): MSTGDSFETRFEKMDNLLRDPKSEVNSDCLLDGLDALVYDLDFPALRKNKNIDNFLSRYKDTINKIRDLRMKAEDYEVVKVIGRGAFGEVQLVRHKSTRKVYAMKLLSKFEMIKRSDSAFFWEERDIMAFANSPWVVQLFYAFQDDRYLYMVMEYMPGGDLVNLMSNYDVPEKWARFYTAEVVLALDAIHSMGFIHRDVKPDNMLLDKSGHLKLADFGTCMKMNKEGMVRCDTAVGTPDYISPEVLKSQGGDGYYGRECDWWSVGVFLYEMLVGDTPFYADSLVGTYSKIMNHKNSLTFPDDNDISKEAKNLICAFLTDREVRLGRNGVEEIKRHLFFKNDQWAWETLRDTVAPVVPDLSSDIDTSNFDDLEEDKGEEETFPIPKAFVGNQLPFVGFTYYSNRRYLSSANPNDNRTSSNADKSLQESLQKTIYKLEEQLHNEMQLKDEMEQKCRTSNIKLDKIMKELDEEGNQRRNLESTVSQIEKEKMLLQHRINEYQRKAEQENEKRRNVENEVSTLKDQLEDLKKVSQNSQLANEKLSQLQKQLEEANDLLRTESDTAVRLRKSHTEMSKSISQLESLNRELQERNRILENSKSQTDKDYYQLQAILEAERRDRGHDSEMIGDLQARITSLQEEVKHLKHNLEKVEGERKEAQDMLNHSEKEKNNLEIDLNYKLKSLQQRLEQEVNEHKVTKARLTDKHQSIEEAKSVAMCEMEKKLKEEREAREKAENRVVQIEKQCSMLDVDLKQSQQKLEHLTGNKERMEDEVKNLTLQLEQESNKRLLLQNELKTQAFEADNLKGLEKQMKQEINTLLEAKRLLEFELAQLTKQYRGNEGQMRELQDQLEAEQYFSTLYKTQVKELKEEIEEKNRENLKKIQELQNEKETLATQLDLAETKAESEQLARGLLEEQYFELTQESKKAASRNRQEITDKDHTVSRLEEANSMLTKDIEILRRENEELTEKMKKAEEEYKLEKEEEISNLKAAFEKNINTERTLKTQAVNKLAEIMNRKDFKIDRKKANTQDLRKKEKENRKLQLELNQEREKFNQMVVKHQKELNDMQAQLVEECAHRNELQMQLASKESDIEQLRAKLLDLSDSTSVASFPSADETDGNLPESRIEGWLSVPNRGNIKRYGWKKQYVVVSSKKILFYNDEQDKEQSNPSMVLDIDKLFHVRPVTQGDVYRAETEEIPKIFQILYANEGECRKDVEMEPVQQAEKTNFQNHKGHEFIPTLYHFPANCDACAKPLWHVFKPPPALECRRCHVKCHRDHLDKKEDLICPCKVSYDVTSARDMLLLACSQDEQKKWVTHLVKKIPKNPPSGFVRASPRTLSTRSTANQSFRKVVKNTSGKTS

Consider `CCn1c(-c2nonc2N)nc2cnc(Oc3ccccc3)cc21`, for which the Selectivity ratio in the data set filed under Homo sapiens [1] was 10; in the data set filed under Homo sapiens [2], 18; in the data set filed under Homo sapiens [4] it was more than 130; in the data set listed under Homo sapiens [5], more than 500; in the data set listed under Homo sapiens [6] it was 1.5. For the same compound, the IC50 in data set [3] amounted to 30 nM.

`CCn1c(-c2nonc2N)nc2cnc(Oc3cccc(NC(=O)c4ccc(CN)cc4)c3)cc21`: the Cmax in [7] was determined as 255 ng/mL; in [10], 9900 ng/mL. This compound also gave a half-life in data set [8] of 1.4 h. Further, the Selectivity ratio in the data set listed under Homo sapiens [1] is more than 70; in the data set listed under Homo sapiens [2], more than 17; in the data set filed under Homo sapiens [6], more than 70. Besides, the bioavailability in data set [9] was 4%. The figures for the IC50 (in data set [3]; in the data set on Aorta) were not above 1 nM and 107 nM, respectively. In addition, the clearance in data set [11] was 2.3 mL/min/kg. The Vd in data set [12] was 0.11 L/kg.

Consider `CCn1c(-c2nonc2N)nc2cnc(Oc3cccc(NC(=O)c4ccc(N5CCOCC5)cc4)c3)cc21`, for which the values for the Cmax in [13] and in [17] were 890 ng/mL and 1500 ng/mL, respectively. This compound returned a bioavailability in data set [14] of 23%. This compound showed a half-life in [15] of 0.9 h. This compound also yielded a clearance in data set [16] of 8.6 mL/min/kg. Further, the values for the Selectivity ratio in the data set listed under Homo sapiens [1], in the data set filed under Homo sapiens [2] and in the data set filed under Homo sapiens [6] were more than 60, more than 10 and more than 26, respectively. Further, the figures for the concentration for half-maximal inhibition (IC50) (in [3]; with Aorta) were not above 1 nM and 59 nM, respectively. In data set [18], the Vd amounted to 0.57 L/kg.

In the case of `CCn1c(-c2nonc2N)nc2cnc(Oc3cccc(NC(=O)c4ccc(CN5CCOCC5)cc4)c3)cc21`, the Cmax worked out at 684 ng/mL in data set [7] and 1100 ng/mL in data set [20]. The same compound gave a half-life in [19] of 1.4 h. Besides, the Vd in [21] came to 1.1 L/kg. Also, the results for the Selectivity ratio in the data set listed under Homo sapiens [1], in the data set filed under Homo sapiens [2] and in the data set filed under Homo sapiens [6] were more than 120, more than 10 and more than 35, respectively. In data set [9], this compound displayed a bioavailability of 64%. Further, the IC50 in data set [3] was not above 1 nM; in the data set on Aorta, 102 nM. This compound registered a clearance in [22] of 10.7 mL/min/kg.

In turn, `CCn1c(-c2nonc2N)nc2cnc(Oc3cccc(NC(=O)c4ccccc4)c3)cc21` returned a bioavailability in data set [23] of 35%. For the same compound, the Selectivity ratio was determined as 3.8 in the data set filed under Homo sapiens [1], 3 in the data set listed under Homo sapiens [2] and 2.2 in the data set listed under Homo sapiens [6]. Moreover, the half-life in data set [24] is 9.6 h. Also, the half-maximal inhibitory concentration (IC50) amounted to 4 nM in data set [3] and 106 nM in the data set with Aorta. Also, in data set [25], the Vd turned out to be 0.16 L/kg. Also, the highest concentration (Cmax) in [26] was 11700 ng/mL; in [27], 6940 ng/mL. In data set [28], this compound returned a clearance of 0.18 mL/min/kg.

On to `CCn1c(-c2nonc2N)nc2cnc(Oc3cccc(S(C)(=O)=O)c3)cc21`, for which the Selectivity ratio in the data set listed under Homo sapiens [1] was 2.7; in the data set filed under Homo sapiens [2] it was 0.7; in the data set filed under Homo sapiens [5], 150; in the data set listed under Homo sapiens [6], 3.9. In [3], this compound had an IC50 of 33 nM.

`CCn1c(-c2nonc2N)nc2cnc(Oc3cccc(NC(=O)c4ccc(N(C)C)cc4)c3)cc21` [GSK-248233A]: the highest concentration (Cmax) in data set [29] came to 18600 ng/mL; in data set [33] it was 3620 ng/mL. Moreover, the Selectivity ratio came to 45 in the data set filed under Homo sapiens [1], 7 in the data set filed under Homo sapiens [2] and 13 in the data set listed under Homo sapiens [6]. The half-inhibitory concentration (IC50) in [3] worked out at 2 nM; in the data set with Aorta it was 106 nM. Moreover, the half-life in [30] was 8.6 h. The compound further registered a clearance in [31] of 0.14 mL/min/kg. This compound also came in with a bioavailability in data set [32] of 11%. Besides, the Vd in [34] turned out to be 0.09 L/kg.

For the compound `CCn1c(-c2nonc2N)nc2cnccc21`, the Selectivity ratio in the data set filed under Homo sapiens [1] is 0.63; in the data set filed under Homo sapiens [2], 3.1; in the data set filed under Homo sapiens [4], 22; in the data set listed under Homo sapiens [5] it was 53; in the data set listed under Homo sapiens [6] it was 0.18. Besides, the IC50 in data set [3] stood at 19 nM.
